Patent US10577361B2, “Dopamine D3 receptor antagonists having a morpholine moiety” (Indivior UK Limited, priority 2015, dated 2020)
Counter-ions that a name gives are not always drawn.

Experiments:
[1] = target: T1, human dopamine receptor type 2, long variant (hD2L) (Homo sapiens (Human), UniProt P14416); assay: Functional calcium assay at hD2 recombinant receptor (CHO-Gα16-hD2L cells, FLIPR); type: cell-based; details: functional pKi at hD2, dopamine EC80 challenge; for Ki: read-out: D2 fp Ki (converted)
Description: Functional Calcium Assay at hD2 Recombinant Receptor CHO cells stably expressing human dopamine receptor type 2, long variant (hD2L), coupled to Gα16 protein (CHO-Gα16-hD2L) were seeded into black walled clear-base 384-well plates at a density of 8,000 cells per well and grown overnight at 37° C. […] Compounds of invention were dissolved in DMSO and 200-fold diluted with assay buffer plus 0.01% Pluronic F-127. […] The fluorescence before compound addition (baseline) and before and after addition of agonist challenge was monitored.

[2] = target: T1, human dopamine receptor type 2, long variant (hD2L); assay: [3H]-Spiperone binding assay at hD2 recombinant receptor (CHO-Gα16-hD2L membranes)
Description: [^3H]-Spiperone Binding Assay at hD2 Recombinant Receptor CHO cells stably expressing human dopamine receptor type 2, long variant (hD2L), coupled to Gα16 protein (CHO-Gα16-hD2L) were re-suspended in 20 mM HEPES, 2 mM EDTA (pH 7.4), homogenised and centrifuged at 40,000 g (20 min, 4° C.). After re-suspension, homogenization and centrifugation as above, the final pellet was re-suspended in 20 mM HEPES, 100 mM NaCl, 10 mM MgCl2, 1 mM EDTA (pH 7.4) and aliquots were kept at −80° C. [^3H]-Spiperone Binding experiments were performed in 96 deep-well polypropylene plates in 50 mM Tris/HCl, 120 mM NaCl, 5 mM KCl, 5 mM MgCl2 (pH 7.4). […] Displacement was performed in the presence of 0.08 nM [^3H]-Spiperone. The reaction was initiated by the addition of membrane suspension (2 μg of protein for CHO-hD2 membranes) and lasted for 120 min at 23° C. in a final volume of 1000 μl. Non specific binding (NSB) was determined in the presence of 0.1 μM Spiperone. The binding reaction was stopped by rapid filtration through GF/B filterplates pre-soaked in 0.5% polyetylenimmine (PEI) using a Packard cell harvester. After washing with ice-cold 0.9% NaCl, the plate was left to dry before the addition of Microscint 20 (50 μl/well, PerkinElmer). Radioactivity was counted with a TopCount (PerkinElmer). […] Saturation binding experiments were performed similar to the competition binding experiments using a radioligand concentrations ranging from 0.011 to 3.0 nM. […] Is Clozapine selective for the dopamine D4 receptor? […] Real-time analysis of dopamine: antagonist interactions at recombinant human D2long receptor upon modulation of its activation state. Brit. J.

[3] = target: human dopamine type 3 receptor (hD3) (Homo sapiens (Human), UniProt P35462); assay: [3H]-Spiperone binding assay at hD3 recombinant receptor (CHO-hD3 membranes); details: pKi only estimated to be accurate to about ±0.3-0.5
Sequence of human dopamine type 3 receptor (hD3) (P35462 whole entry): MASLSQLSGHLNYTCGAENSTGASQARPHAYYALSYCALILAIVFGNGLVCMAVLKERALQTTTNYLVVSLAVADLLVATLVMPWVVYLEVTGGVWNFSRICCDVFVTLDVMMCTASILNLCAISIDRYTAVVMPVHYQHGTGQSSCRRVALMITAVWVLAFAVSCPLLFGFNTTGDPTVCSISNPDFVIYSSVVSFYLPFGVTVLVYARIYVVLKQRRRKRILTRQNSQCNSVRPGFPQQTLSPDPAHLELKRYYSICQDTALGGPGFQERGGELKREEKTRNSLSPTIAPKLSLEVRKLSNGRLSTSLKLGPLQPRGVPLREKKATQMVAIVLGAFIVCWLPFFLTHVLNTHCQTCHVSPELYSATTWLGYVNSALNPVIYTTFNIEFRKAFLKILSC
Description: [^3H]-Spiperone Binding Assay at hD3 and hD4 recombinant receptors CHO cells transiently transfected with human dopamine type 3 or 4 receptors (CHO-hD3 or CHO-hD4, respectively), were re-suspended in 20 mM HEPES, 2 mM EDTA (pH 7.4), homogenised and centrifuged at 40,000 g (20 min, 4° C.). After re-suspension, homogenization and centrifugation as above, the final pellet was re-suspended in 20 mM HEPES, 100 mM NaCl, 10 mM MgCl2, 1 mM EDTA (pH 7.4) and aliquots were kept at −80° C. [^3H]-Spiperone Binding experiments were performed in 96 deep-well polypropylene plates in 50 mM Tris/HCl, 120 mM NaCl, 5 mM KCl, 5 mM MgCl2 (pH 7.4). Compounds of invention were serially diluted in DMSO at 100 fold final concentrations in the assay (1% DMSO final in the assay). Displacement was performed in the presence of 0.3 nM [^3H]-Spiperone. The reaction was initiated by the addition of membrane suspension (4 μg and 12 μg of protein for CHO-hD3- and CHO-hD4 membranes, respectively) and lasted for 90 or 100 min (for hD3 or hD4 membranes, respectively) at 23° C. in a final volume of 500 μl. Non specific binding (NSB) was determined in the presence of 1 μM Spiperone. The binding reaction was stopped by rapid filtration through GF/B filterplates pre-soaked in 0.5% polyetylenimmine (PEI) using a Packard cell harvester. After washing with ice-cold 0.9% NaCl, the plate was left to dry before the addition of Microscint 20 ([…], PerkinElmer). Radioactivity was counted with a TopCount (PerkinElmer). Data were analysed by non-linear regression analysis using GraphPad Prism 5.0 (GraphPad Software). Saturation binding experiments were performed similar to the competition binding experiments using a radioligand concentrations ranging from 0.015 to 4.0 nM. […] Characterization of the human dopamine D3 receptor expressed in transfected cell lines.

## Cc1ncoc1-c1nnc(SCCCN2CCO[C@H](c3ccc(C(F)(F)F)cc3)C2)n1C (single isomer, unassigned) [Example 10, (2R or 2S)-4-(3-({[4-methyl-5-(4-methyl-1,3-oxazol-5-yl)-4H-1,2,4-triazol-3-yl]sulfanyl}propyl)-2-[4-(trifluoromethyl)phenyl]morpholine hydrochloride]
[1]
  Ki: > 10 µM
[2]; read-out: D2 p Ki (converted)
  Ki: 11.7 µM

## Cc1ncoc1-c1nnc(SCCCN2CCOC(c3ccc(F)cc3)C2)n1C (stereo not drawn) [Example 1]
[3]
  D3 p Ki: 6.37
[1]
  Ki: > 10 µM

## Cc1ncoc1-c1nnc(SCCCCN2CCO[C@H](c3ccc(C(F)(F)F)cc3)C2)n1C (single isomer, unassigned) [Example 6, (2R or 2S)-4-(4-{[4-methyl-5-(4-methyl-1,3-oxazol-5-yl)-4H-1,2,4-triazol-3-yl]sulfanyl}butyl)-2-[4-(trifluoromethyl)phenyl]morpholine]
[3]
  D3 p Ki: 7.11
[1]
  D2 fp Ki: <5

## Cc1ncoc1-c1nnc(SCCCCN2CCOC(c3ccc(C(F)(F)F)cc3)C2)n1C (stereo not drawn) [Example 4, 4-(4-{[4-methyl-5-(4-methyl-1,3-oxazol-5-yl)-4H-1,2,4-triazol-3-yl]sulfanyl}butyl)-2-[4-(trifluoromethyl)phenyl]morpholine]
[3]
  D3 p Ki: 7.05
[1]
  Ki: > 10 µM

## Cn1c(SCCCN2CCOC(c3ccc(C(F)(F)F)cc3)C2)nnc1-c1cccc(C(N)=O)c1 (stereo not drawn) [Example 23, 3-{4-methyl-5-[(3-{2-[4-(trifluoromethyl)phenyl]morpholin-4-yl}propyl)sulfanyl]-4H-1,2,4-triazol-3-yl}benzamide]
[3]
  D3 p Ki: 6.53
[2]
  D2 p Ki: 4.82

## Cc1ncoc1-c1nnc(SCCCN2CCO[C@H](c3ccc(C(F)(F)F)cc3)C2)n1C (single isomer, unassigned) [Example 9, (2R or 2S)-4-(3-{[4-methyl-5-(4-methyl-1,3-oxazol-5-yl)-4H-1,2,4-triazol-3-yl]sulfanyl)}propyl)-2-[4-(trifluoromethyl)phenyl]morpholine]
[1]
  D2 fp Ki: 5.64
[2]
  D2 p Ki: 5.36

## Cn1nccc1-c1nnc(SCCCN2CCOC(c3ccc(C(F)(F)F)cc3)C2)n1C (stereo not drawn) [Example 27, 4-(3-{[4-methyl-5-(1-methyl-1H-pyrazol-5-yl)-4H-1,2,4-triazol-3-yl]sulfanyl}propyl)-2-[4-(trifluoromethyl)phenyl]morpholine]
[3]
  D3 p Ki: 6.16
[2]
  D2 p Ki: <5

## Cn1c(SCCCN2CCOC(c3ccc(C(F)(F)F)cc3)C2)nnc1-c1ccc(-c2ncco2)cc1 (single isomer, unassigned) [Example 16, (2R or 2S)-4-[3-({4-methyl-5-[4-(1,3-oxazol-2-yl)phenyl]-4H-1,2,4-triazol-3-yl}sulfanyl)propyl]-2-[4-(trifluoromethyl)phenyl]morpholine]
[3]
  D3 p Ki: 8.23
[2]
  D2 p Ki: 5.28

## Cc1ccc(C2CN(CCCSc3nnc(-c4ccc(-c5noc(C)n5)cc4)n3C)CCO2)cc1 (stereo not drawn) [Example 37, 4-[3-({4-methyl-5-[4-(5-methyl-1,2,4-oxadiazol-3-yl)phenyl]-4H-1,2,4-triazol-3-yl}sulfanyl)propyl]-2-(4-methylphenyl)morpholine]
[3]
  D3 p Ki: 7.07
[1]
  Ki: 31.6 µM
[2]
  D2 p Ki: 4.50

## Cc1ncoc1-c1nnc(SCCCN2CCOC(c3ccc(F)cc3)C2)n1C (single isomer, unassigned) [Example 3, (2R or 2S)-2-(4-fluorophenyl)-4-(3-({[4-methyl-5-(4-methyl-1,3-oxazol-5-yl)-4H-1,2,4-triazol-3-yl]sulfanyl}propyl)morpholine]
[3]
  D3 p Ki: 6.56
[1]
  D2 fp Ki: <5
